Assay results taken from paper PMC4965013, “Open Source Drug Discovery with the Malaria Box Compound Collection for Neglected Diseases and Beyond” (PLoS Pathogens, 2016).
Read-outs that look alike come from different tables or passages of the source.

Tests used:
[1] = tested on: P. falciparum NF54 gametocytes stage IV/V; experiment: Gametocyte PrestoBlue resazurin assay Mancama; type: cell-based; conditions: reference control
P. falciparum Dd2 = experiment: Malaria Sybr Green I Fluorescence assay Dd2 Horrocks; type: cell-based; conditions: Plasmodium falciparum, DD2, 48 h; read-out: P. falciparum Dd2 asexual blood stage EC50 Horrocks
Experimental: Column S: Horrocks group (data presented first in this paper). Asexual Dd2 inhibition of growth (IC50s): IC50 for the Dd2 clone of Plasmodium falciparum were determined using the Malaria Sybr Green I Fluorescence assay. Drug assays were initiated using a 2% trophozoite stage parasitaemia and 2% hematocrit and fluorescence measured after 48 h as fully described in Hasenkamp et al.[53]. Log dose-response curves were plotted in GraphPad Prism (v5.0). The controls for Dd2 using our 48hr Sybr Green I assay were (rounded to nearest nM): Chloroquine 209nM, Mefloquine 11nM, Quinine 246nM, Dihydroartemisinin 4nM, Artemether 10nM, Atovaquone 3nM.

[2] = tested on: P. falciparum NF54 late-stage gametocytes; conditions: ref [61]; cited from earlier work
[3] = tested on: Naegleria fowleri trophozoites; experiment: Naegleria fowleri CellTiter-Glo; type: cell-based; conditions: Naegleria fowleri
Description: Columns CY-CZ: Kyle group (data presented first in this paper). Naegleria fowleri trophozoite growth inhibition. Methods: The CellTiter-Glo (CTG) 2.0 luminescent assay is a quantitative assay that assesses the presence of cellular ATP in lysed cells, displaying an output in Relative Light Units (RLU’s). This was previously standardised, for the growth and development of Naegleria fowleri trophozoites in-vitro to assess drug susceptibility on this parasite. […] These included two drug-like molecules MMV665807 (St. Jude’s Children’s Hospital) and MMV665979 (The Genomics Institute of the Novartis Research Foundation - GNF) and two Probe-like molecules, MMV006203 (GNF) & MMV006172 (GNF; GlaxoSmithKline - GSK). […] However, these Malaria Box compounds were all toxic to zebrafish and mammalian cells.

P. falciparum 3D7 = experiment: [3H]-hypoxanthine growth inhibition, modified HCO3- or O2; type: cell-based; conditions: for IC50: Plasmodium falciparum
PfPMT = PfPMT (Plasmodium falciparum, UniProt Q8IDQ9); experiment: PfPMT gene replacement yeast growth; conditions: 100µM
PfPMT, sequence (Q8IDQ9 whole entry): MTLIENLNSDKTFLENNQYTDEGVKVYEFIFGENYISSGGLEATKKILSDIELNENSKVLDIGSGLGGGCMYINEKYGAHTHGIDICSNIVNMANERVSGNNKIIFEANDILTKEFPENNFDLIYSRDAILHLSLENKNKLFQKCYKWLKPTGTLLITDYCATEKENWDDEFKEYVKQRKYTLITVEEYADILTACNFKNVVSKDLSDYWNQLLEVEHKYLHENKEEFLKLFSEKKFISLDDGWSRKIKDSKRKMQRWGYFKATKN

P. falciparum = experiment: EC50 listed in S2 Table Metabolomics (used to set the concentration tested); type: cell-based; conditions: Plasmodium falciparum; EC50 used for Factor_XEC50 in metabolomics; read-out: EC50_nM
[4] = tested on: P. falciparum 3D7 trophozoites; experiment: Metabolomic fingerprint profiling LC-MS; type: cell-based, Plasmodium falciparum; design: UDP-D-glucose / ADP-D-glucose: unit not given here
[5] = metabolite level change after treatment

**Q.** What does the source list for `C[C@H]1[C@@H](O)O[C@@H]2O[C@@]3(C)CC[C@H]4[C@H](C)CC[C@@H]1[C@@]24OO3` [Dihydroartemisinin, reference compound]?
**A.** DHA inhibition of stage IV/V gametocytes [1]: 84%; EC50 (P. falciparum Dd2): 4 nM

**Q.** What does the source list for `CN1CCN(c2ccc(Nc3c4ccccc4nc4ccccc34)cc2)CC1` [MMV006172]?
**A.** IC50 [2]: < 350 nM; EC50 [3]: 450 nM; fold change (IC50reduced/IC50normal) (P. falciparum 3D7): 2.7; IC50 (P. falciparum 3D7; 3D7, read-out: P. falciparum 3D7 IC50 HCO3- (2g/L), standard media): 98 nM; IC50 (P. falciparum 3D7; 3D7, HCO3- reduced media, read-out: P. falciparum 3D7 IC50 HCO3- reduced): 269 nM; candidate inhibitors of PfPMT activity (yeast functional assay) (PfPMT): candidate inhibitors of PfPMT activity; EC50 (P. falciparum): 142 nM; Acetyllysine ([4]; S2 Table Metabolomics, metabolite Acetyllysine): 0.6429; N-acetyl-L-ornithine ([4]; S2 Table Metabolomics, metabolite N-acetyl-L-ornithine): -0.2511; N-carbamoyl-L-aspartate ([4]; S2 Table Metabolomics, metabolite N-carbamoyl-L-aspartate): 0.8815; NADPH ([4]; S2 Table Metabolomics, metabolite NADPH): 2.534; dAMP ([4]; S2 Table Metabolomics, metabolite dAMP): 1.267; dCMP ([4]; S2 Table Metabolomics, metabolite dCMP): -0.3053; dTDP ([4]; S2 Table Metabolomics, metabolite dTDP): 0.7092; dTMP ([4]; S2 Table Metabolomics, metabolite dTMP): 0.8691; dTTP ([4]; S2 Table Metabolomics, metabolite dTTP): -0.715; dihydroorotate ([4]; S2 Table Metabolomics, metabolite dihydroorotate): 1.4632; orotate ([4]; S2 Table Metabolomics, metabolite orotate): 0.5213; DLH ([4]; S2 Table Metabolomics, peptide DLH): -4.586; DLS/SDL/SID ([4]; S2 Table Metabolomics, peptide DLS/SDL/SID): -3.823; PD ([4]; S2 Table Metabolomics, peptide PD): -0.4464; PEE ([4]; S2 Table Metabolomics, peptide PEE): -0.6694; PVNF ([4]; S2 Table Metabolomics, peptide PVNF): -3.7; 3-phosphoglycerate ([4]; metabolite 3-phosphoglycerate, S2 Table Metabolomics): -0.655; ADP-D-glucose ([4]; metabolite ADP-D-glucose, S2 Table Metabolomics): -0.09693; ATP ([4]; metabolite ATP, S2 Table Metabolomics): -0.7842; CDP ([4]; metabolite CDP, S2 Table Metabolomics, change in metabolite level after compound treatment): 1.006; D-sedoheptulose-1/7-phosphate ([4]; metabolite D-sedoheptulose-1/7-phosphate, S2 Table Metabolomics, change in metabolite level after compound treatment): 0.2573; FAD ([4]; metabolite FAD, S2 Table Metabolomics): 0.1782; GMP ([4]; metabolite GMP, S2 Table Metabolomics, change in metabolite level after compound treatment): -0.3671; NAD+ ([4]; metabolite NAD+, S2 Table Metabolomics): 0.5266; NADP+ ([4]; metabolite NADP+, S2 Table Metabolomics): -0.7002; Octoluse Bisphosphate ([4]; metabolite Octoluse Bisphosphate, S2 Table Metabolomics, change in metabolite level after compound treatment): -0.1204; Pyroglutamic acid ([4]; metabolite Pyroglutamic acid, S2 Table Metabolomics): -0.2696; UDP-D-glucose ([4]; metabolite UDP-D-glucose, S2 Table Metabolomics): 0.05631; UDP-D-glucuronate ([4]; metabolite UDP-D-glucuronate, S2 Table Metabolomics): -0.2935; UDP-N-acetyl-glucosamine ([4]; metabolite UDP-N-acetyl-glucosamine, S2 Table Metabolomics): 0.1613; UDP ([4]; metabolite UDP, S2 Table Metabolomics, change in metabolite level after compound treatment): 0.649; UMP ([4]; metabolite UMP, S2 Table Metabolomics, change in metabolite level after compound treatment): 0.2218; UTP ([4]; metabolite UTP, S2 Table Metabolomics, change in metabolite level after compound treatment): -0.6427; a-ketoglutarate ([4]; metabolite a-ketoglutarate, S2 Table Metabolomics): -0.4073; citrate/isocitrate ([4]; metabolite citrate/isocitrate, S2 Table Metabolomics, change in metabolite level after compound treatment): -0.6633; cytidine ([4]; metabolite cytidine, S2 Table Metabolomics): 0.3233; dATP ([4]; metabolite dATP, S2 Table Metabolomics): -0.3558; dGMP/AMP ([4]; metabolite dGMP/AMP, S2 Table Metabolomics, change in metabolite level after compound treatment): 1.003; fumarate ([4]; metabolite fumarate, S2 Table Metabolomics, change in metabolite level after compound treatment): 0.7684; glucose-1/6-phosphate ([4]; metabolite glucose-1/6-phosphate, S2 Table Metabolomics, change in metabolite level after compound treatment): 0.09231; glycerate ([4]; metabolite glycerate, S2 Table Metabolomics, change in metabolite level after compound treatment): 0.7592; guanine ([4]; metabolite guanine, S2 Table Metabolomics, change in metabolite level after compound treatment): 0.5811; guanosine ([4]; metabolite guanosine, S2 Table Metabolomics, change in metabolite level after compound treatment): 0.453; hypoxanthine ([4]; metabolite hypoxanthine, S2 Table Metabolomics): -0.3137; indole ([4]; metabolite indole, S2 Table Metabolomics): -0.03187; inosine ([4]; metabolite inosine, S2 Table Metabolomics, change in metabolite level after compound treatment): -0.01435; 2_3-Diphosphoglyceric acid [4, 5]: -0.3266; 4-phosphopantothenate [4, 5]: 0.2237; 6-phospho-D-gluconate [4, 5]: -0.02611; FMN [4, 5]: -0.396; IMP [4, 5]: 0.3236; Pyrophosphate [4, 5]: -0.313; Sedoheptoluse bisphosphate [4, 5]: 0.4531; cyclic-AMP [4, 5]: -0.3476; glutathione disulfide [4, 5]: -0.09654; lactate [4, 5]: -0.002939; myo-inositol [4, 5]: 0.6827; nicotinate ([4]; metabolite nicotinate, S2 Table Metabolomics): -0.01109; ornithine ([4]; metabolite ornithine, S2 Table Metabolomics): 0.1416; phosphoenolpyruvate ([4]; metabolite phosphoenolpyruvate, S2 Table Metabolomics): -0.5207; pyruvate ([4]; metabolite pyruvate, S2 Table Metabolomics, change in metabolite level after compound treatment): -0.2034; ribose-phosphate ([4]; metabolite ribose-phosphate, S2 Table Metabolomics): -0.6476; sarcosine/alanine ([4]; metabolite sarcosine/alanine, S2 Table Metabolomics, change in metabolite level after compound treatment): -0.2856; sn-glycerol-3-phosphate ([4]; metabolite sn-glycerol-3-phosphate, S2 Table Metabolomics): -0.6027; succinate/methylmalonic acid ([4]; metabolite succinate/methylmalonic acid, S2 Table Metabolomics, change in metabolite level after compound treatment): -0.3004; uridine ([4]; metabolite uridine, S2 Table Metabolomics, change in metabolite level after compound treatment): -0.07558; xanthosine ([4]; metabolite xanthosine, S2 Table Metabolomics, change in metabolite level after compound treatment): -1.8392
